Test results: publication PMC6835510, “Magnificamide, a β-Defensin-Like Peptide from the Mucus of the Sea Anemone Heteractis magnifica, Is a Strong Inhibitor of Mammalian α-Amylases” (Marine Drugs, 2019)
Bridge positions count the residues as written; N and C are the ends. Ends that are not written are not given here.

Assays:
hERG = experiment: Two-electrode voltage-clamp; format: cell-based, mammalian; details: 10 µM; Xenopus laevis oocytes; 18–22 °C
Text: (§1) For the expression of Nav channels (mammalian rNav1.2, rNav1.4, hNav1.5, mNav1.6 and hNav1.8 channels; the insect channel BgNav1 from Blattella germanica; and the auxiliary subunits rβ1, hβ1, and TipE) and Kv channels (mammalian rKv1.1, rKv1.2, hKv1.3, rKv1.4, rKv1.5, rKv1.6, rKv2.1, hKv3.1, rKv4.2, hKv10.1, and hERG; and Drosophila Shaker’s IR) in Xenopus laevis oocytes; the linearized plasmids were transcribed using the T7 or SP6 mMESSAGE-mMACHINE transcription kit (Ambion, Carlsbad, CA, USA). The harvesting of stage V–VI oocytes from anesthetized female Xenopus laevis frog was previously described. Oocytes were injected with 50 nL of cRNA at a concentration of 1 ng/nL using a microinjector (Drummond Scientific, Broomall, PA, USA). The oocytes were incubated in a solution containing 96-mM NaCl, 2-mM KCl, 1.8-mM CaCl2, 2-mM MgCl2, and 5-mM HEPES (pH 7.4), supplemented with 50 mg/L gentamycin sulfate.
(§2) Two-electrode voltage-clamp recordings were performed at room temperature (18–22 °C) using a Geneclamp 500 amplifier (Molecular Devices, Downingtown, PA, USA) controlled by a pClamp data acquisition system (Axon Instruments, Union City, CA, USA). Whole cell currents from oocytes were recorded 1–4 days after injection. The bath solution’s composition was 96-mM NaCl, 2-mM KCl, 1.8-mM CaCl2, 2-mM MgCl2, and 5-mM HEPES (pH 7.4). Toxins were applied directly to the bath. Resistances of both electrodes were kept between 0.8 and 1.5 MΩ. The elicited currents were sampled at 20 kHz (Nav) or 2 kHz (Kv), filtered at 2 kHz (Nav) or 0.5 kHz (Kv) using a four-pole low-pass Bessel filter. Leak subtraction was performed using a -P/4 protocol. […] For the electrophysiological analysis, a number of protocols were applied from a holding potential of −90 mV with a start-to-start interval of 0.2 Hz. Kv1.1–Kv1.6 and Shaker currents were evoked by 250-ms depolarizations to 0 mV followed by a 250 ms pulse to −50 mV from a holding potential of −90 mV. Current traces of hERG channels were elicited by applying a +40 mV prepulse for 2 s followed by −120 mV for 2 s. Kv2.1, Kv3.1, and Kv4.2 currents were elicited by 250 ms pulses to +20 mV from a holding potential of −90 mV. Kv10.1 currents were evoked by 2-s depolarizing pulses to 0 mV from a holding potential of −90 mV. Sodium current traces were evoked by 100-ms depolarization to the voltage corresponding to maximal sodium current in control conditions. All data were analyzed using pClamp Clampfit 10.0 (Molecular Devices, Downingtown, PA, USA) and Origin 7.5 software (Originlab, Northampton, MA, USA).

mNav1.6 = experiment: Two-electrode voltage-clamp; format: cell-based, mammalian; details: 10 µM; Xenopus laevis oocytes; 18–22 °C
Text: as §1, §2

rKv1.5 = experiment: Two-electrode voltage-clamp; format: cell-based, mammalian; details: 10 µM; Xenopus laevis oocytes; 18–22 °C
Text: as §1, §2

rKv1.6 = experiment: Two-electrode voltage-clamp; format: cell-based, mammalian; details: 10 µM; Xenopus laevis oocytes; 18–22 °C
Text: as §1, §2

[1] = molecular target: T1, porcine pancreatic α-amylase (PPA) (Sus scrofa, UniProt P00690); experiment: PPA inhibitory activity of RP-HPLC fractions; format: biochemical; details: 10 µL sample, PPA 1 µg/mL, 50 mM sodium phosphate, 100 mM NaCl, pH 7.0, 10 min RT, CNPG3 1 mM, 405 nm
T1 construct: purchased Sigma Aldrich A4268
T1 sequence (P00690 16-511): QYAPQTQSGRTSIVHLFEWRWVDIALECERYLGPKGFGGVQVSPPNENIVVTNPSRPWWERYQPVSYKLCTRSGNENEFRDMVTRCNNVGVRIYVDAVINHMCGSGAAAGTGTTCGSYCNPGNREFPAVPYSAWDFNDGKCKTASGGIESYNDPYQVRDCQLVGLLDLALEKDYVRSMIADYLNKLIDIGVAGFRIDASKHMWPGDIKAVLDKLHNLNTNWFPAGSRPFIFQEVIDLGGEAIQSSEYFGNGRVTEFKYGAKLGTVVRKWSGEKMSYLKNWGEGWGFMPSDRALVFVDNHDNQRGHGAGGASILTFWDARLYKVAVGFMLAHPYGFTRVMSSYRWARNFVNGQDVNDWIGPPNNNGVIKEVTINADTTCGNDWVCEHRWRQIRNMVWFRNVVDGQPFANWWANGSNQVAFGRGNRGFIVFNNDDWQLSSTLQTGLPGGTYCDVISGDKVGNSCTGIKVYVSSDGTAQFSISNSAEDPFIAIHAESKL
Protocol: The porcine α-amylase (PPA) inhibitory activity of the peptide fractions obtained by RP-HPLC was tested by the following procedure. Experimental samples (10 µL) were added to 80 µL of 50 mM sodium phosphate, 100 mM sodium chloride buffer (pH 7.0), and PPA (A4268) (1 µg/mL) (Sigma Aldrich, St. Louis, MO, USA), and incubated for 10 min at RT. The substrate solution, 2-chloro-4-nitrophenyl α-D-maltotrioside (CNPG3) (Sigma Aldrich, St. Louis, MO, USA), was added to the reaction mixture (1 mM) and incubated for 10 min at RT. The optical absorption was measured on an xMark microplate spectrophotometer (BioRad, Hercules, CA, USA) at 405 nm.

[2] = test system: 18 subtypes of voltage-gated potassium and voltage-gated sodium channels; experiment: Electrophysiological screening, overall; format: cell-based; details: 10 µM, Xenopus laevis oocytes
Text: as §1
as §2, with “Current traces of hERG channels were elicited by applying a +40 mV prepulse for 2 s followed by −120 mV for 2 s. Kv2.1, Kv3.1, and Kv4.2 currents were elicited by 250 ms pulses to +20 mV from a holding potential of −90 mV. Kv10.1 currents were evoked by 2-s depolarizing pulses to 0 mV from a holding potential of −90 mV. Sodium current traces were evoked by 100-ms depolarization to the voltage corresponding to maximal sodium current in control conditions.” left out

In the case of “SEGTSCYIYHGVYGICKAKCAEDMKAMAGMGVCEGDLCCYKTPW (disulfide 6-38, 16-33, 20-39) [r-magnificamide]”, the “Channel modulating activity, hERG” value (hERG) is reported as “Not active”, the “Channel modulating activity, Nav1.6” value (mNav1.6) is reported as “Not active” and the “Channel modulating activity, Kv1.5” value (rKv1.5) is reported as “Not active”. For the same sequence, the “Channel modulating activity, Kv1.6” value (rKv1.6) was “Not active”, the “PPA inhibition by RP-HPLC fraction” value [1] was “inhibited PPA” and the “Ion channel modulating activity, overall” value ([2]; listed as r-Magnificamide) was “did not reveal ion channel modulating activity”. For the same sequence, the “Ion channel modulating activity, overall” value ([2]; listed as recombinant analog of magnificamide) was “does not show antimicrobial or channel modulating activities”.
